Legend:
Assay in all cases: post-emergence herbicidal activity, greenhouse
Assay type in all cases: in vivo
Crabgrass = conditions: Table II
Method in brief: (§1)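 Plants grown from seed or perennial propagules in greenhouse soil pans were sprayed at two to three weeks with compound solution or suspension containing about 0.4% emulsifier, at the stated application rates. Injury relative to untreated controls was scored at approximately two and four weeks after treatment on a post-emergence activity index.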

Wild Buckwheat = conditions: Table II
Method in brief: as §1

Velvetleaf = tested on: Velvetleaf
Method in brief: as §1

Sugar Beet = conditions: Table II
Method in brief: as §1

Soybean = conditions: Table II
Method in brief: as §1

Smartweed = conditions: Table I, 4 WAT
Method in brief: as §1

Panicum Spp = conditions: Table II
Method in brief: as §1

Rice = conditions: Table II
Method in brief: as §1

Downy Brome = tested on: Downy Brome
Method in brief: as §1

Canada Thistle = conditions: Table I, 4 WAT
Method in brief: as §1

Yellow Nutsedge = conditions: Table I, 4 WAT
Method in brief: as §1

Barnyardgrass = tested on: Barnyardgrass
Method in brief: as §1

Hemp Sesbania = conditions: Table II
Method in brief: as §1

Quackgrass = conditions: Table I, 4 WAT
Method in brief: as §1

Morningglory = tested on: Morningglory
Method in brief: as §1

Sorghum = conditions: Table II
Method in brief: as §1

Cocklebur = tested on: Cocklebur
Method in brief: as §1

Johnsongrass = conditions: Table I, 4 WAT
Method in brief: as §1

Lambsquarters = tested on: Lambsquarters
Method in brief: as §1

Wheat = conditions: Table II
Method in brief: as §1

## CC(C)SSN(CC#N)CP(=O)(Oc1ccccc1)Oc1ccccc1 [VI, Phosphonic acid, [[(cyanomethyl)[(1-methylethyl)-dithio]amino]methyl]-, diphenyl ester]
Crabgrass; 2 WAT, 1.12 kg/h
  post-emergence herbicidal activity index: 1 (25-49% control)
Crabgrass; 2 WAT, 5.6 kg/h
  post-emergence herbicidal activity index: 3 (75-99% control)
Crabgrass; 4 WAT, 0.28 kg/h
  post-emergence herbicidal activity index: 1 (25-49% control)
Crabgrass; 4 WAT, 1.12 kg/h
  post-emergence herbicidal activity index: 1 (25-49% control)
Crabgrass; 4 WAT, 5.6 kg/h
  post-emergence herbicidal activity index: 3 (75-99% control)
Wild Buckwheat; 2 WAT, 1.12 kg/h
  post-emergence herbicidal activity index: 0 (0-24% control)
Wild Buckwheat; 2 WAT, 5.6 kg/h
  post-emergence herbicidal activity index: 1 (25-49% control)
Wild Buckwheat; 4 WAT, 0.28 kg/h
  post-emergence herbicidal activity index: 0 (0-24% control)
Wild Buckwheat; 4 WAT, 1.12 kg/h
  post-emergence herbicidal activity index: 0 (0-24% control)
Wild Buckwheat; 4 WAT, 5.6 kg/h
  post-emergence herbicidal activity index: 1 (25-49% control)
Velvetleaf; Table I, 4 WAT, 5.6 kg/h
  post-emergence herbicidal activity index: 1 (25-49% control)
Velvetleaf; Table I, 4 WAT, 11.2 kg/h
  post-emergence herbicidal activity index: 2 (50-74% control)
Velvetleaf; Table II, 2 WAT, 1.12 kg/h
  post-emergence herbicidal activity index: 0 (0-24% control)
Velvetleaf; Table II, 2 WAT, 5.6 kg/h
  post-emergence herbicidal activity index: 1 (25-49% control)
Velvetleaf; Table II, 4 WAT, 0.28 kg/h
  post-emergence herbicidal activity index: 0 (0-24% control)
Velvetleaf; Table II, 4 WAT, 1.12 kg/h
  post-emergence herbicidal activity index: 1 (25-49% control)
Velvetleaf; Table II, 4 WAT, 5.6 kg/h
  post-emergence herbicidal activity index: 2 (50-74% control)
Sugar Beet; 2 WAT, 1.12 kg/h
  post-emergence herbicidal activity index: 0 (0-24% control)
Sugar Beet; 2 WAT, 5.6 kg/h
  post-emergence herbicidal activity index: 0 (0-24% control)
Sugar Beet; 4 WAT, 0.28 kg/h
  post-emergence herbicidal activity index: 0 (0-24% control)
Sugar Beet; 4 WAT, 1.12 kg/h
  post-emergence herbicidal activity index: 0 (0-24% control)
Sugar Beet; 4 WAT, 5.6 kg/h
  post-emergence herbicidal activity index: 1 (25-49% control)
Soybean; 2 WAT, 1.12 kg/h
  post-emergence herbicidal activity index: 0 (0-24% control)
Soybean; 2 WAT, 5.6 kg/h
  post-emergence herbicidal activity index: 1 (25-49% control)
Soybean; 4 WAT, 0.28 kg/h
  post-emergence herbicidal activity index: 0 (0-24% control)
Soybean; 4 WAT, 1.12 kg/h
  post-emergence herbicidal activity index: 0 (0-24% control)
Soybean; 4 WAT, 5.6 kg/h
  post-emergence herbicidal activity index: 1 (25-49% control)
Smartweed; 5.6 kg/h
  post-emergence herbicidal activity index: 2 (50-74% control)
Smartweed; 11.2 kg/h
  post-emergence herbicidal activity index: 2 (50-74% control)
Panicum Spp; 2 WAT, 1.12 kg/h
  post-emergence herbicidal activity index: 0 (0-24% control)
Panicum Spp; 2 WAT, 5.6 kg/h
  post-emergence herbicidal activity index: 1 (25-49% control)
Panicum Spp; 4 WAT, 0.28 kg/h
  post-emergence herbicidal activity index: 0 (0-24% control)
Panicum Spp; 4 WAT, 1.12 kg/h
  post-emergence herbicidal activity index: 0 (0-24% control)
Panicum Spp; 4 WAT, 5.6 kg/h
  post-emergence herbicidal activity index: 1 (25-49% control)
Rice; 2 WAT, 1.12 kg/h
  post-emergence herbicidal activity index: 0 (0-24% control)
Rice; 2 WAT, 5.6 kg/h
  post-emergence herbicidal activity index: 0 (0-24% control)
Rice; 4 WAT, 0.28 kg/h
  post-emergence herbicidal activity index: 0 (0-24% control)
Rice; 4 WAT, 1.12 kg/h
  post-emergence herbicidal activity index: 0 (0-24% control)
Rice; 4 WAT, 5.6 kg/h
  post-emergence herbicidal activity index: 0 (0-24% control)
Downy Brome; Table I, 4 WAT, 5.6 kg/h
  post-emergence herbicidal activity index: 2 (50-74% control)
Downy Brome; Table I, 4 WAT, 11.2 kg/h
  post-emergence herbicidal activity index: 3 (75-99% control)
Downy Brome; Table II, 2 WAT, 1.12 kg/h
  post-emergence herbicidal activity index: 0 (0-24% control)
Downy Brome; Table II, 2 WAT, 5.6 kg/h
  post-emergence herbicidal activity index: 2 (50-74% control)
Downy Brome; Table II, 4 WAT, 0.28 kg/h
  post-emergence herbicidal activity index: 0 (0-24% control)
Downy Brome; Table II, 4 WAT, 1.12 kg/h
  post-emergence herbicidal activity index: 0 (0-24% control)
Downy Brome; Table II, 4 WAT, 5.6 kg/h
  post-emergence herbicidal activity index: 2 (50-74% control)
Canada Thistle; 5.6 kg/h
  post-emergence herbicidal activity index: 2 (50-74% control)
Canada Thistle; 11.2 kg/h
  post-emergence herbicidal activity index: 2 (50-74% control)
Yellow Nutsedge; 5.6 kg/h
  post-emergence herbicidal activity index: 0 (0-24% control)
Yellow Nutsedge; 11.2 kg/h
  post-emergence herbicidal activity index: 3 (75-99% control)
Barnyardgrass; Table I, 4 WAT, 5.6 kg/h
  post-emergence herbicidal activity index: 2 (50-74% control)
Barnyardgrass; Table I, 4 WAT, 11.2 kg/h
  post-emergence herbicidal activity index: 2 (50-74% control)
Barnyardgrass; Table II, 2 WAT, 1.12 kg/h
  post-emergence herbicidal activity index: 1 (25-49% control)
Barnyardgrass; Table II, 2 WAT, 5.6 kg/h
  post-emergence herbicidal activity index: 2 (50-74% control)
Barnyardgrass; Table II, 4 WAT, 0.28 kg/h
  post-emergence herbicidal activity index: 0 (0-24% control)
Barnyardgrass; Table II, 4 WAT, 1.12 kg/h
  post-emergence herbicidal activity index: 0 (0-24% control)
Barnyardgrass; Table II, 4 WAT, 5.6 kg/h
  post-emergence herbicidal activity index: 3 (75-99% control)
Hemp Sesbania; 2 WAT, 1.12 kg/h
  post-emergence herbicidal activity index: 0 (0-24% control)
Hemp Sesbania; 2 WAT, 5.6 kg/h
  post-emergence herbicidal activity index: 1 (25-49% control)
Hemp Sesbania; 4 WAT, 0.28 kg/h
  post-emergence herbicidal activity index: 0 (0-24% control)
Hemp Sesbania; 4 WAT, 1.12 kg/h
  post-emergence herbicidal activity index: 0 (0-24% control)
Hemp Sesbania; 4 WAT, 5.6 kg/h
  post-emergence herbicidal activity index: 1 (25-49% control)
Quackgrass; 5.6 kg/h
  post-emergence herbicidal activity index: 0 (0-24% control)
Quackgrass; 11.2 kg/h
  post-emergence herbicidal activity index: 1 (25-49% control)
Morningglory; Table I, 4 WAT, 5.6 kg/h
  post-emergence herbicidal activity index: 2 (50-74% control)
Morningglory; Table I, 4 WAT, 11.2 kg/h
  post-emergence herbicidal activity index: 2 (50-74% control)
Morningglory; Table II, 2 WAT, 1.12 kg/h
  post-emergence herbicidal activity index: 1 (25-49% control)
Morningglory; Table II, 2 WAT, 5.6 kg/h
  post-emergence herbicidal activity index: 1 (25-49% control)
Morningglory; Table II, 4 WAT, 0.28 kg/h
  post-emergence herbicidal activity index: 0 (0-24% control)
Morningglory; Table II, 4 WAT, 1.12 kg/h
  post-emergence herbicidal activity index: 0 (0-24% control)
Morningglory; Table II, 4 WAT, 5.6 kg/h
  post-emergence herbicidal activity index: 1 (25-49% control)
Sorghum; 2 WAT, 1.12 kg/h
  post-emergence herbicidal activity index: 1 (25-49% control)
Sorghum; 2 WAT, 5.6 kg/h
  post-emergence herbicidal activity index: 2 (50-74% control)
Sorghum; 4 WAT, 0.28 kg/h
  post-emergence herbicidal activity index: 0 (0-24% control)
Sorghum; 4 WAT, 1.12 kg/h
  post-emergence herbicidal activity index: 1 (25-49% control)
Sorghum; 4 WAT, 5.6 kg/h
  post-emergence herbicidal activity index: 3 (75-99% control)
Cocklebur; Table I, 4 WAT, 5.6 kg/h
  post-emergence herbicidal activity index: 2 (50-74% control)
Cocklebur; Table I, 4 WAT, 11.2 kg/h
  post-emergence herbicidal activity index: 2 (50-74% control)
Cocklebur; Table II, 2 WAT, 1.12 kg/h
  post-emergence herbicidal activity index: 1 (25-49% control)
Cocklebur; Table II, 2 WAT, 5.6 kg/h
  post-emergence herbicidal activity index: 2 (50-74% control)
Cocklebur; Table II, 4 WAT, 0.28 kg/h
  post-emergence herbicidal activity index: 0 (0-24% control)
Cocklebur; Table II, 4 WAT, 1.12 kg/h
  post-emergence herbicidal activity index: 1 (25-49% control)
Cocklebur; Table II, 4 WAT, 5.6 kg/h
  post-emergence herbicidal activity index: 3 (75-99% control)
Johnsongrass; 5.6 kg/h
  post-emergence herbicidal activity index: 3 (75-99% control)
Johnsongrass; 11.2 kg/h
  post-emergence herbicidal activity index: 3 (75-99% control)
Lambsquarters; Table I, 4 WAT, 5.6 kg/h
  post-emergence herbicidal activity index: 3 (75-99% control)
Lambsquarters; Table I, 4 WAT, 11.2 kg/h
  post-emergence herbicidal activity index: 4 (100% control)
Lambsquarters; Table II, 2 WAT, 1.12 kg/h
  post-emergence herbicidal activity index: 3 (75-99% control)
Lambsquarters; Table II, 2 WAT, 5.6 kg/h
  post-emergence herbicidal activity index: 3 (75-99% control)
Lambsquarters; Table II, 4 WAT, 0.28 kg/h
  post-emergence herbicidal activity index: 0 (0-24% control)
Lambsquarters; Table II, 4 WAT, 1.12 kg/h
  post-emergence herbicidal activity index: 3 (75-99% control)
Lambsquarters; Table II, 4 WAT, 5.6 kg/h
  post-emergence herbicidal activity index: 3 (75-99% control)
Wheat; 2 WAT, 1.12 kg/h
  post-emergence herbicidal activity index: 1 (25-49% control)
Wheat; 2 WAT, 5.6 kg/h
  post-emergence herbicidal activity index: 1 (25-49% control)
Wheat; 4 WAT, 0.28 kg/h
  post-emergence herbicidal activity index: 0 (0-24% control)
Wheat; 4 WAT, 1.12 kg/h
  post-emergence herbicidal activity index: 0 (0-24% control)
Wheat; 4 WAT, 5.6 kg/h
  post-emergence herbicidal activity index: 1 (25-49% control)

From patent US4508663A, “Process for preparing thiosulfenamide derivatives of N-phosphonomethylglycinonitriles” (Monsanto Company, priority 1983, dated 1985)
